According to ChEMBL document CHEMBL3046335, “Prediction of anti-HIV activity of imidoyl thioureas: QSAR approach” (Med Chem Res, 2009):

Experiments:
[1] = physchem; conditions: octanol/water
Description: Octanol-water partition coefficient, log P of the compound

[2] = tested on: Human immunodeficiency virus 1; test: microbe, parasite or virus in culture; conditions: Human immunodeficiency virus 1, read-out: pIC50 (converted)
Description: Antiviral activity against wild type Human immunodeficiency virus 1

| SMILES | logP [1] | IC50 [2] |
| --- | --- | --- |
| N#Cc1ccc(NC(=S)NC(=N)Cc2ccccc2Cl)cc1 | 3.19 | 14 nM |
| CN(C)C(Cc1c(Cl)cccc1Cl)NC(=N)Nc1ccc(C#N)cc1 (stereo not drawn) | 7.06 | 757 nM |
| N#Cc1ccc(NC(=S)NC(=N)C2(c3c(Cl)cccc3Cl)CC2)cc1 | 6.11 | 676 nM |
| CN/C(Cc1c(Cl)cccc1Cl)=N\C(S)=N\c1ccc(C#N)cc1 | 6.75 | 77.4 nM |
| C/N=C(/Cc1c(Cl)cccc1Cl)NC(=O)Nc1ccc(C#N)cc1 | 5.96 | 214 nM |
| COc1ccccc1CC(=N)/N=C(\S)Nc1ccc(C#N)cc1 | 2.42 | 30 nM |
| N#Cc1ccc(N/C(S)=N/C(=N)Cc2c(F)cccc2F)cc1 | 2.95 | 6 nM |
| CN(C)C(Cc1c(Cl)cccc1Cl)/N=C(\S)Nc1ccc(C#N)cc1 (stereo not drawn) | 5.64 |  |
| CC(C(=N)/N=C(\S)Nc1ccc(C#N)cc1)c1c(Cl)cccc1Cl (stereo not drawn) | 5.95 | 158 nM |
| N#Cc1ccc(NC(=S)NC(=N)Cc2ccccc2)cc1 | 2.67 | 380 nM |
| CCN/C(Cc1c(Cl)cccc1Cl)=N\C(S)=N\c1ccc(C#N)cc1 | 5.77 | 195 nM |
| Cc1ccccc1CC(=N)/N=C(\S)Nc1ccc(C#N)cc1 | 3.13 | 26 nM |
| N#C/N=C(\NCCc1ccc(C#N)cc1)N/C(Cc1c(Cl)cccc1Cl)=N\c1ccccc1 | 5.98 | 158 nM |

Continued, values first:

| logP [1] | IC50 [2] | SMILES |
| --- | --- | --- |
| 4.83 | 126 nM | N#Cc1ccc(NC(=S)NC(=N)Cc2c(Cl)cccc2Cl)cc1 |
| 3.7 | 126 nM | N#Cc1cccc(NC(=S)NC(=N)Cc2c(Cl)cccc2Cl)c1 |
| 3.67 | 123 nM | N=C(Cc1c(Cl)cccc1Cl)NC(=S)Nc1ccccc1 |
| 6.22 | 617 nM | N=C(Cc1c(Cl)cccc1Cl)NC(=S)NCCc1ccc(Cl)cc1 |
| 4.19 | 13 nM | N=C(Cc1c(Cl)cccc1Cl)NC(=S)Nc1ccc(Cl)cc1 |
| 3.71 | 15 nM | N#Cc1ccc(NC(=O)NC(=N)Cc2c(Cl)cccc2Cl)cc1 |
| 3.7 | 7 nM | N#Cc1ccc(NC(=S)NC(=N)Cc2ccc(Cl)cc2Cl)cc1 |
| 4.7 | 347 nM | N=C(Cc1c(Cl)cccc1Cl)NC(=S)Nc1ccc(Cl)cc1Cl |
| 3.19 | 67.9 nM | N#Cc1ccc(NC(=S)NC(=N)Cc2cccc(Cl)c2)cc1 |
| 5.46 | 43.7 nM | N#Cc1ccc(NC(=S)NC(=N)c2c(Cl)cccc2Cl)cc1 |
| 3.19 | 148 nM | N#Cc1ccc(NC(=S)NC(=N)Cc2ccc(Cl)cc2)cc1 |
| 4.22 | 5 nM | N#Cc1ccc(NC(=S)NC(=N)Cc2c(Cl)ccc(Cl)c2Cl)cc1 |
| 5.79 | 525 nM | N#Cc1ccc(NC(=S)NC(=N)CCc2c(Cl)cccc2Cl)cc1 |
| 5.97 | 692 nM | N=C(Cc1c(Cl)cccc1Cl)NC(=S)NCc1ccc(Cl)cc1 |
